Experimental data: patent US8664257B2, “Oxygen-substituted 3-heteroaroylamino-propionic acid derivatives and their use as pharmaceuticals” (Sanofi, priority 2010, dated 2014)
Read-outs that look alike come from different tables or passages of the source.

Target: T1, Recombinant human cathepsin A (Homo sapiens, UniProt P10619)
T1 construct: Recombinant human cathepsin A (residues 29-480, with a C-terminal 10-His tag); 10-His (C); purchased R&D Systems 1049-SE
T1 sequence (P10619 29-312 limits assumed): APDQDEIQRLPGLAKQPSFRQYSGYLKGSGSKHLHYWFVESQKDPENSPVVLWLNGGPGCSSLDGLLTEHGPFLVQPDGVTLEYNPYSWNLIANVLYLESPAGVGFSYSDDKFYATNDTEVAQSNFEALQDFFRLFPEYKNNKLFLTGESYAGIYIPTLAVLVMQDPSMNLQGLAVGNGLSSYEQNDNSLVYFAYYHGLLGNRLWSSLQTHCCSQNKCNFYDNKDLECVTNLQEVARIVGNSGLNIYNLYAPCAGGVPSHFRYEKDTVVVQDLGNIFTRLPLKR
T1 sequence (P10619 327-480 limits assumed): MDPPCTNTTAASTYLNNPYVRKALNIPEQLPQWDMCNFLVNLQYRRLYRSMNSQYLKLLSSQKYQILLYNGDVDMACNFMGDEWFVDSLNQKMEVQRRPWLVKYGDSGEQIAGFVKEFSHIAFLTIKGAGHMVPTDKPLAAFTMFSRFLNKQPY
Experiment: Cathepsin A inhibitory activity
Assay type: biochemical
In short: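 Human cathepsin A (res. 29-480, C-His10) pre-activated with cathepsin L (MES pH 6.0, DTT, 15 min, 37 °C; quenched with 10 μM E-64). Enzyme (833 ng/ml) preincubated 15 min RT with compound in MES pH 5.5/DTT, then 2 μM Bodipy FL-bradykinin for 15 min RT. Capillary electrophoresis product/substrate peak areas; IC50 from % inhibition.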

[1] = recombinant human cathepsin A 833 ng/ml, Bodipy FL-labeled bradykinin 2 μM, pH 5.5, read-out: CATH-A IC50
[2] = recombinant human cathepsin A, read-out: Activity (2): Cathepsin A inhibitory activity, IC50 class

## O=C(O)CC(NC(=O)c1cc(O)n(-c2ccc(F)cc2F)n1)c1cc(F)ccc1C(F)(F)F (stereo not drawn) [Example 452, 3-{[1-(2,4-Difluoro-phenyl)-5-hydroxy-1H-pyrazole-3-carbonyl]-amino}-3-(5-fluoro-2-trifluoromethyl-phenyl)-propionic acid]
[1]
  IC50: 139 nM
[2]
  IC50: 100 to 1000 nM

## COc1ccc(F)cc1C(CC(=O)O)NC(=O)c1cc(O)n(-c2ccc(F)cc2F)n1 (stereo not drawn) [Example 453, 3-{[1-(2,4-Difluoro-phenyl)-5-hydroxy-1H-pyrazole-3-carbonyl]-amino}-3-(5-fluoro-2-methoxy-phenyl)-propionic acid]
[1]
  IC50: 249 nM
[2]
  IC50: 100 to 1000 nM

## Cc1ccc([C@H](CC(=O)O)NC(=O)c2cc(O)n(-c3ccc(F)cc3F)n2)cc1 [Example 454, (S)-3-{[1-(2,4-Difluoro-phenyl)-5-hydroxy-1H-pyrazole-3-carbonyl]-amino}-3-p-tolyl-propionic acid]
[1]
  IC50: 186 nM
[2]
  IC50: 100 to 1000 nM

## Cc1c(F)cccc1C(CC(=O)O)NC(=O)c1cc(O)n(-c2ccccc2Cl)n1 (stereo not drawn) [Example 455, 3-{[1-(2-Chloro-phenyl)-5-hydroxy-1H-pyrazole-3-carbonyl]-amino}-3-(3-fluoro-2-methyl-phenyl)-propionic acid]
[1]
  IC50: 154 nM
[2]
  IC50: 100 to 1000 nM

## CN(C)c1ccc(C(CC(=O)O)NC(=O)c2cc(O)n(-c3ccccc3Cl)n2)c(Cl)c1 (stereo not drawn) [Example 456]
[2]
  IC50: 1000 to 30000 nM

## COc1cccc(F)c1C(CC(=O)O)NC(=O)c1cc(O)n(-c2ccccc2Cl)n1 (stereo not drawn) [Example 457, 3-{[1-(2-Chloro-phenyl)-5-hydroxy-1H-pyrazole-3-carbonyl]-amino}-3-(2-fluoro-6-methoxy-phenyl)-propionic acid]
[1]
  IC50: 170 nM
[2]
  IC50: 100 to 1000 nM

## O=C(O)CC(NC(=O)c1cc(O)n(-c2ccccc2Cl)n1)c1cc(F)ccc1Cl (stereo not drawn) [Example 458, 3-(2-Chloro-5-fluoro-phenyl)-3-{[1-(2-chloro-phenyl)-5-hydroxy-1H-pyrazole-3-carbonyl]-amino}-propionic acid]
[1]
  IC50: 223 nM
[2]
  IC50: 100 to 1000 nM

## O=C(O)CC(NC(=O)c1cc(O)n(-c2ccccc2Cl)n1)c1cc(F)ccc1F (stereo not drawn) [Example 459, 3-{[1-(2-Chloro-phenyl)-5-hydroxy-1H-pyrazole-3-carbonyl]-amino}-3-(2,5-difluoro-phenyl)-propionic acid]
[1]
  IC50: 128 nM
[2]
  IC50: 100 to 1000 nM

## O=C(O)CC(NC(=O)c1cc(O)n(-c2ccccc2Cl)n1)c1cc(F)ccc1C(F)(F)F (stereo not drawn) [Example 460, 3-{[1-(2-Chloro-phenyl)-5-hydroxy-1H-pyrazole-3-carbonyl]-amino}-3-(5-fluoro-2-trifluoromethyl-phenyl)-propionic acid]
[1]
  IC50: 118 nM
[2]
  IC50: 100 to 1000 nM

## Cc1ccc(F)cc1C(CC(=O)O)NC(=O)c1cc(O)n(-c2ccccc2Cl)n1 (stereo not drawn) [Example 461, 3-{[1-(2-Chloro-phenyl)-5-hydroxy-1H-pyrazole-3-carbonyl]-amino}-3-(5-fluoro-2-methyl-phenyl)-propionic acid]
[1]
  IC50: 151 nM
[2]
  IC50: 100 to 1000 nM

## O=C(O)CC(NC(=O)c1cc(O)n(-c2ccccc2Cl)n1)c1cc(Cl)ccc1Cl (stereo not drawn) [Example 462, 3-{[1-(2-Chloro-phenyl)-5-hydroxy-1H-pyrazole-3-carbonyl]-amino}-3-(2,5-dichloro-phenyl)-propionic acid]
[1]
  IC50: 80.4 nM
[2]
  IC50: < 100 nM

## CN(C)c1ccc(C(CC(=O)O)NC(=O)c2cc(O)n(-c3cccc(Cl)c3)n2)c(Cl)c1 (stereo not drawn) [Example 463, 3-(2-Chloro-4-dimethylamino-phenyl)-3-{[1-(3-chloro-phenyl)-5-hydroxy-1H-pyrazole-3-carbonyl]-amino}-propionic acid]
[1]
  IC50: 11100 nM
[2]
  IC50: 1000 to 30000 nM

## O=C(O)CC(NC(=O)c1cc(O)n(-c2cccc(Cl)c2)n1)c1cccc2c1OC(F)(F)O2 (stereo not drawn) [Example 464, 3-{[1-(3-Chloro-phenyl)-5-hydroxy-1H-pyrazole-3-carbonyl]-amino}-3-(2,2-difluoro-benzo[1,3]dioxol-4-yl)-propionic acid]
[1]
  IC50: 274 nM
[2]
  IC50: 100 to 1000 nM

## O=C(O)CC(NC(=O)c1cc(O)n(-c2cccc(Cl)c2)n1)c1cc(F)ccc1F (stereo not drawn) [Example 465, 3-{[1-(3-Chloro-phenyl)-5-hydroxy-1H-pyrazole-3-carbonyl]-amino}-3-(2,5-difluoro-phenyl)-propionic acid]
[1]
  IC50: 738 nM
[2]
  IC50: 100 to 1000 nM

## O=C(O)CC(NC(=O)c1cc(O)n(-c2cccc(Cl)c2)n1)c1cc(F)ccc1C(F)(F)F (stereo not drawn) [Example 466, 3-{[1-(3-Chloro-phenyl)-5-hydroxy-1H-pyrazole-3-carbonyl]-amino}-3-(5-fluoro-2-trifluoromethyl-phenyl)-propionic acid]
[1]
  IC50: 562 nM
[2]
  IC50: 100 to 1000 nM

## O=C(O)CC(NC(=O)c1cc(O)n(-c2cccc(Cl)c2)n1)c1ccccc1SC(F)(F)F (stereo not drawn) [Example 467, 3-{[1-(3-Chloro-phenyl)-5-hydroxy-1H-pyrazole-3-carbonyl]-amino}-3-(2-trifluoromethylsulfanyl-phenyl)-propionic acid]
[1]
  IC50: 2250 nM
[2]
  IC50: 1000 to 30000 nM

## Cc1c(F)cccc1C(CC(=O)O)NC(=O)c1cc(O)n(-c2ccc(Cl)cc2)n1 (stereo not drawn) [Example 468, 3-{[1-(4-Chloro-phenyl)-5-hydroxy-1H-pyrazole-3-carbonyl]-amino}-3-(3-fluoro-2-methyl-phenyl)-propionic acid]
[1]
  IC50: 280 nM
[2]
  IC50: 100 to 1000 nM

## COc1cccc(F)c1C(CC(=O)O)NC(=O)c1cc(O)n(-c2ccc(Cl)cc2)n1 (stereo not drawn) [Example 469, 3-{[1-(4-Chloro-phenyl)-5-hydroxy-1H-pyrazole-3-carbonyl]-amino}-3-(2-fluoro-6-methoxy-phenyl)-propionic acid]
[1]
  IC50: 860 nM
[2]
  IC50: 100 to 1000 nM

## O=C(O)CC(NC(=O)c1cc(O)n(-c2ccc(Cl)cc2)n1)c1cc(F)ccc1Cl (stereo not drawn) [Example 470, 3-(2-Chloro-5-fluoro-phenyl)-3-{[1-(4-chloro-phenyl)-5-hydroxy-1H-pyrazole-3-carbonyl]-amino}-propionic acid]
[1]
  IC50: 398 nM
[2]
  IC50: 100 to 1000 nM

## O=C(O)CC(NC(=O)c1cc(O)n(-c2ccc(Cl)cc2)n1)c1cccc2c1OC(F)(F)O2 (stereo not drawn) [Example 471, 3-{[1-(4-Chloro-phenyl)-5-hydroxy-1H-pyrazole-3-carbonyl]-amino}-3-(2,2-difluoro-benzo[1,3]dioxol-4-yl)-propionic acid]
[1]
  IC50: 486 nM
[2]
  IC50: 100 to 1000 nM

## O=C(O)CC(NC(=O)c1cc(O)n(-c2ccc(Cl)cc2)n1)c1cc(F)ccc1F (stereo not drawn) [Example 472, 3-{[1-(4-Chloro-phenyl)-5-hydroxy-1H-pyrazole-3-carbonyl]-amino}-3-(2,5-difluoro-phenyl)-propionic acid]
[1]
  IC50: 4090 nM
[2]
  IC50: 1000 to 30000 nM

## O=C(O)CC(NC(=O)c1cc(O)n(-c2ccc(Cl)cc2)n1)c1cc(F)ccc1C(F)(F)F (stereo not drawn) [Example 473, 3-{[1-(4-Chloro-phenyl)-5-hydroxy-1H-pyrazole-3-carbonyl]-amino}-3-(5-fluoro-2-trifluoromethyl-phenyl)-propionic acid]
[1]
  IC50: 1730 nM
[2]
  IC50: 1000 to 30000 nM

## O=C(O)C[C@H](NC(=O)c1cc(O)n(-c2ccc(Cl)cc2)n1)c1ccccc1Cl [Example 474, (S)-3-(2-Chloro-phenyl)-3-{[1-(4-chloro-phenyl)-5-hydroxy-1H-pyrazole-3-carbonyl]-amino}-propionic acid]
[1]
  IC50: 207 nM
[2]
  IC50: 100 to 1000 nM
